These results are taken from US9095624B2 (priority 2011, dated 2015).

Assay [1] concerns C57Black/6J mice with B16-F1 melanoma. The experiment in a line: Photodynamic therapy, B16-F1 melanoma. Format: in vivo. The method, then: (§1) In order to evaluate the potential utility of MTP for enhancing the therapeutic efficacy of a drug that requires localization within the cell nucleus to be effective, photodynamic therapy (PDT) studies were performed in three different murine subcutaneous tumor models, with PDT initiated three hours after photosensitizer (PS) injection. The comparative efficacy of photodynamic therapy with bacteriochlorin p conjugated with DTox-HMP-NLS-αMSH MTP and free bacteriochlorin p is reported in FIGS. 11A-D.
The first experiment was performed in C57Black/6J mice with B16-F1 melanoma. FIG. 11A reports tumor growth, mean±SEM, with injection and illumination cycles indicated with arrows. The average tumor volumes are shown up to the last day when all animals were alive in a group. FIG. 11B provides the Kaplan-Meier survival curve. […] The median survival for mice receiving PS-MTP conjugate was 32.0±1.3 days compared with 17.0±1.5 days for the control group and 20.0±5.5 days for the bacteriochlorin group (FIG. 11B). The difference in survival between PS-MTP and each of two control groups was significant (p<0.01).

In assay [2] the test system is DBA/2 mice with Cloudman S91 melanoma. The assay is described as follows: Photodynamic therapy, Cloudman S91 melanoma. The conditions noted are these: PDT. In kind it is in vivo. The method, then:
as §1
The second experiment utilized DBA/2 mice with Cloudman S91 melanoma. FIG. 11C reports tumor growth, mean±SEM with the injection and illumination cycles being indicated with arrows. The average tumor volumes are shown up to the last day when all animals were alive in a group. FIG. 11D provides the Kaplan-Meier survival curve. […] The median survival for mice receiving PS-MTP conjugate was 56.0±18.6 days compared with 21.0±0.7 days for the control group and 31.0±1.3 days for the bacteriochlorin group (FIG. 11D).

The test system of assay [3] is Balb/c ByJIco-nu/nu mice with A431 human epidermoid carcinoma xenografts. The conditions noted are these: mouse, in vivo.

Take bacteriochlorin p: the median survival in assay [1] (PDT) stood at 20.0 ± 5.5 days; in assay [2] it was 31.0 ± 1.3 days. For the same molecule, in assay [1] (PDT three hours after photosensitizer injection), the “inhibition in tumor growth” value is recorded as “no significant effect”.
On to `C=Cc1c(C)c2cc3nc(c(CC(=O)O)c4[nH]c(cc5nc(cc1[nH]2)C(C)=C5CC)c(C)c4C(=O)O)[C@@H](CCC(=O)O)[C@@H]3C` [chlorin e6], for which, in assay [3], the “animals remaining alive at the end of the observation period” value is recorded as 20%.
